Experimental data taken from PMC5140066, “Electrophysiological Characteristics of Human iPSC-Derived Cardiomyocytes for the Assessment of Drug-Induced Proarrhythmic Potential” (PLoS ONE, 2016).

Assays:
[1] = tested on: guinea pig ventricular myocytes; parameters: method as in PMID 9709405; settings: independent of the underlying pacing rate; cited from earlier work
[2] = tested on: human ventricular myocytes; parameters: method as in PMID 9709405; settings: independent of the underlying pacing rate; cited from earlier work
[3] = tested on: human induced pluripotent stem cell-derived cardiomyocytes (hiPSC-CMs); assay: Field potential recording of hiPSC-CM sheets on multi-electrode array (MEA); format: cell-based; settings: for Effect on FPD: cumulative application; for Use (rate) dependence of FPD prolongation: from FPD-ISI plots
Protocol: The cells were thawed and suspended in iCell Cardiomyocytes Plating Medium (Cellular Dynamics International), then plated (approximately 2 × 10^6 cells/well) in 6-well tissue-culture plates coated with 0.1% gelatin. After two days of incubation at 37°C under an atmosphere of 5% CO2, the plating medium was replaced with iCell Cardiomyocytes Maintenance Medium (Cellular Dynamics International); this medium was used as the culture medium throughout the experiments and was replaced every 1 to 3 days. The cells were cultured for 7 to 14 days in a 5% CO2 incubator at 37°C and then re-plated onto MEA probes (MED-P515A or MED-PG515A; Alpha Med Scientific, Osaka, Japan).
The recording areas of the MEA probes were coated with fibronectin (Becton Dickinson, Franklin Lakes, NJ, USA; Invitrogen, Carlsbad, CA, USA; Corning, Corning, NY, USA). Fibronectin was dissolved in distilled water or Dulbecco's phosphate-buffered saline (PBS) [−] to give 50 μg/mL, the recording areas were covered with 2 μL fibronectin solution, and then the MEA probes were incubated at 37°C for at least 1 h. […] After discarding the fibronectin solution from the MEA probes without complete drying, the cell suspension at a density of 3.0 × 10^4 cells in a 2 μL droplet was re-plated onto the fibronectin-coated area of each MEA probe and incubated for 1 to 3 h in a 5% CO2 incubator at 37°C. Each well of the MEA probes was then filled with maintenance medium at a volume of 1 mL/well. The medium was replaced every 1 to 3 days thereafter, and the cells were cultured for 5 to 14 days to obtain high density cardiomyocyte-sheets with spontaneous and synchronous electrical activities.
Prior to recording FPs, the cardiomyocyte-sheets were equilibrated for at least 30 min in a 5% CO2 incubator at 37°C in fresh culture medium. The MEA probes were then transferred to a FP measurement apparatus (MED64 system; Alpha Med Scientific, Osaka, Japan) and covered with a lid through which humidified gas containing 5% CO2 was provided. […] Analogue FP signals from the spontaneously beating cardiomyocyte-sheets were acquired through a 0.1-Hz high-pass filter and a 5-kHz low-pass filter, and digitized at 20 kHz using the MED64 system. […] Compound stock solutions were prepared using DMSO at 1000-fold the target concentrations of the test compounds. The stock solutions were diluted with the maintenance medium to obtain the appropriate compound concentrations, then 1/10th to 1/50th the volume of the medium in the wells was exchanged with an equal volume of the compound-containing medium. The compounds were applied in a cumulative manner to the wells. The concentration of DMSO was 0.5–0.6% at the highest concentration of the test compounds. […] FPD (ms) and ISI (ms) were analyzed using Mobius QT software designed by WitWerx (Santa Cruz, CA, USA) (Fig 1b).
Baseline FP waveforms that met the following criteria were used for analysis. […] In the FP signals, EAD and TA were defined as slow negative spikes and a sharp deflection with an amplitude ≥ ± 100 μV, respectively (Fig 1c). EAD, TA or both usually appear during or after the second positive deflection. ISI, FPD and FPDcF were not calculated for concentrations in which EAD or TA were observed.
As previously mentioned, total 96 data equally from 4 facilities each were used for the analysis (24 data per facility). […] The root mean squared prediction error (RMSE) was used to show the level of accuracy of the equation predicted for the observed data (Fig 2). With categorical data analysis of FPD, inter-facilities differences were investigated with Kruskal-Wallis test (Fig 4).

[4] = tested on: dogs with subacute myocardial infarction; parameters: method as in PMID 11005588; settings: cited from earlier work
[5] = cisapride 3 nM, all 4 facilities, n=24
[6] = cisapride 3 nM, facility A, n=6
[7] = cisapride 3 nM, facility B, n=6
[8] = cisapride 3 nM, facility C, n=6
[9] = cisapride 3 nM, facility D, n=6
[10] = cisapride 10 nM, all 4 facilities, n=24
[11] = cisapride 10 nM, all 4 facilities, n=24, listed as cisapride
[12] = cisapride 10 nM, facility A, n=6
[13] = cisapride 10 nM, facility B, n=6
[14] = cisapride 10 nM, facility C, n=6
[15] = cisapride 10 nM, facility D, n=6
[16] = cisapride 30 nM, all 4 facilities, n=24
[17] = cisapride 30 nM, facility A, n=6
[18] = cisapride 30 nM, facility B, n=6
[19] = cisapride 30 nM, facility C, n=6
[20] = cisapride 30 nM, facility D, n=6
[21] = cisapride 100 nM, all 4 facilities, n=24
[22] = cisapride 100 nM, facility D, n=6

CCS(=O)(=O)N(C)[C@H]1c2cc(C#N)ccc2OC(C)(C)[C@@H]1O (racemic) [Chromanol 293B]
Prolongation of APD90 [1]: about 30%
Prolongation of APD90 [2]: about 30%
EADs and/or TAs ([3]; at concentrations up to 30 μM): not observed
Slope factor of FPD-ISI regression, % change ([3]; chromanol 293B 1 μM): 0.9162
Slope factor of FPD-ISI regression, % change ([3]; chromanol 293B 30 μM): 0.9066
Slope factor of FPD-ISI regression, absolute FPD (ms) ([3]; chromanol 293B 30 μM (sham 0.1674)): 0.4182
Effect on FPD [3]: prolonged FPD in a concentration-dependent manner
Use (rate) dependence of FPD prolongation [3]: prolonged FPD in a rate-independent manner
Effect on effective refractory periods [4]: prolonged effective refractory periods in a rate-dependent manner

COc1cc(N)c(Cl)cc1C(=O)NC1CCN(CCCOc2ccc(F)cc2)CC1OC (centres unmarked) [Cisapride, cisapride]
Delta FPDcF ([3]; categorical analysis, Fridericia correction, S5 Table): increased in a concentration-dependent manner
Delta FPD ([3]; categorical analysis, S4 Table): increased in a concentration-dependent manner
Slope factor of FPD-ISI regression, % change ([3]; cisapride 3 nM): 0.6124
Preparations in absolute FPD category > 450 ms [3, 5]: 21%(5/24)
Preparations in absolute FPD category > 480 ms [3, 5]: 13%(3/24)
Preparations in absolute FPD category > 500 ms [3, 5]: 17%(4/24)
Preparations in absolute FPD category ≤ 450 ms [3, 5]: 50%(12/24)
Preparations in absolute FPD category > 450 ms [3, 6]: 17%(1/6)
Preparations in absolute FPD category > 480 ms [3, 6]: 17%(1/6)
Preparations in absolute FPD category > 500 ms [3, 6]: 50% (3/6)
Preparations in absolute FPD category ≤ 450 ms [3, 6]: 17%(1/6)
Preparations in absolute FPD category > 450 ms [3, 7]: 17%(1/6)
Preparations in absolute FPD category > 480 ms [3, 7]: 17%(1/6)
Preparations in absolute FPD category > 500 ms [3, 7]: 0% (0/6)
Preparations in absolute FPD category ≤ 450 ms [3, 7]: 67%(4/6)
Preparations in absolute FPD category > 450 ms [3, 8]: 17%(1/6)
Preparations in absolute FPD category > 480 ms [3, 8]: 17%(1/6)
Preparations in absolute FPD category > 500 ms [3, 8]: 17%(1/6)
Preparations in absolute FPD category ≤ 450 ms [3, 8]: 50% (3/6)
Preparations in absolute FPD category > 450 ms [3, 9]: 33%(2/6)
Preparations in absolute FPD category > 480 ms [3, 9]: 0% (0/6)
Preparations in absolute FPD category > 500 ms [3, 9]: 0% (0/6)
Preparations in absolute FPD category ≤ 450 ms [3, 9]: 67%(4/6)
Preparations in absolute FPD category > 450 ms [3, 10]: 38%(9/24)
Preparations in absolute FPD category > 480 ms [3, 10]: 17%(4/24)
Preparations in absolute FPD category > 500 ms [3, 10]: 29%(7/24)
Preparations in absolute FPD category ≤ 450 ms [3, 10]: 17% (4/24)
Preparations in absolute FPD category > 500 ms [3, 11]: 29%
Preparations with EAD/TA [3, 11]: no EAD/TAs were observed
Preparations in absolute FPD category > 450 ms [3, 12]: 0% (0/6)
Preparations in absolute FPD category > 480 ms [3, 12]: 50% (3/6)
Preparations in absolute FPD category > 500 ms [3, 12]: 50% (3/6)
Preparations in absolute FPD category ≤ 450 ms [3, 12]: 0% (0/6)
Preparations in absolute FPD category > 450 ms [3, 13]: 33%(2/6)
Preparations in absolute FPD category > 480 ms [3, 13]: 0% (0/6)
Preparations in absolute FPD category > 500 ms [3, 13]: 17%(1/6)
Preparations in absolute FPD category ≤ 450 ms [3, 13]: 50% (3/6)
Preparations in absolute FPD category > 450 ms [3, 14]: 50% (3/6)
Preparations in absolute FPD category > 480 ms [3, 14]: 0% (0/6)
Preparations in absolute FPD category > 500 ms [3, 14]: 33%(2/6)
Preparations in absolute FPD category ≤ 450 ms [3, 14]: 17%(1/6)
Preparations in absolute FPD category > 450 ms [3, 15]: 67%(4/6)
Preparations in absolute FPD category > 480 ms [3, 15]: 17%(1/6)
Preparations in absolute FPD category > 500 ms [3, 15]: 17%(1/6)
Preparations in absolute FPD category ≤ 450 ms [3, 15]: 0% (0/6)
Slope factor of FPD-ISI regression, % change ([3]; cisapride 30 nM): 1.2274
Slope factor of FPD-ISI regression, absolute FPD (ms) ([3]; cisapride 30 nM (sham 0.1204)): 0.1644
Preparations in absolute FPD category > 450 ms [3, 16]: 4% (1/24)
Preparations in absolute FPD category > 480 ms [3, 16]: 13%(3/24)
Preparations in absolute FPD category > 500 ms [3, 16]: 71%(17/24)
Preparations in absolute FPD category ≤ 450 ms [3, 16]: 8% (2/24)
Preparations with EAD/TA [3, 16]: 4%(1/24)
Preparations in absolute FPD category > 500 ms ([3]; cisapride 30 nM, all 4 facilities, n=24, listed as cisapride): 71%
Number of preparations that showed EAD/TAs ([3]; cisapride 30 nM, all 4 facilities, of 24): 1 preparation
Preparations in absolute FPD category > 450 ms [3, 17]: 0% (0/6)
Preparations in absolute FPD category > 480 ms [3, 17]: 0% (0/6)
Preparations in absolute FPD category > 500 ms [3, 17]: 83%(5/6)
Preparations in absolute FPD category ≤ 450 ms [3, 17]: 0% (0/6)
Preparations with EAD/TA [3, 17]: 17%(1/6)
Preparations in absolute FPD category > 450 ms [3, 18]: 17%(1/6)
Preparations in absolute FPD category > 480 ms [3, 18]: 0% (0/6)
Preparations in absolute FPD category > 500 ms [3, 18]: 50% (3/6)
Preparations in absolute FPD category ≤ 450 ms [3, 18]: 33%(2/6)
Preparations in absolute FPD category > 450 ms [3, 19]: 0% (0/6)
Preparations in absolute FPD category > 480 ms [3, 19]: 33%(2/6)
Preparations in absolute FPD category > 500 ms [3, 19]: 67%(4/6)
Preparations in absolute FPD category ≤ 450 ms [3, 19]: 0% (0/6)
Preparations in absolute FPD category > 450 ms [3, 20]: 0% (0/6)
Preparations in absolute FPD category > 480 ms [3, 20]: 17%(1/6)
Preparations in absolute FPD category > 500 ms [3, 20]: 83%(5/6)
Preparations in absolute FPD category ≤ 450 ms [3, 20]: 0% (0/6)
Preparations in absolute FPD category > 450 ms [3, 21]: 0% (0/24)
Preparations in absolute FPD category > 480 ms [3, 21]: 0% (0/24)
Preparations in absolute FPD category > 500 ms [3, 21]: 8%(2/24)
Preparations in absolute FPD category ≤ 450 ms [3, 21]: 0% (0/24)
Preparations with EAD/TA [3, 21]: 92%(22/24)
Preparations with EAD/TA ([3]; cisapride 100 nM, all 4 facilities, n=24, listed as cisapride): 92%
Preparations with EAD/TA ([3]; cisapride 100 nM, facility A, n=6): 100%(6/6)
Preparations with EAD/TA ([3]; cisapride 100 nM, facility B, n=6): 100%(6/6)
Preparations with EAD/TA ([3]; cisapride 100 nM, facility C, n=6): 100%(6/6)
Preparations in absolute FPD category > 450 ms [3, 22]: 0% (0/6)
Preparations in absolute FPD category > 480 ms [3, 22]: 0% (0/6)
Preparations in absolute FPD category > 500 ms [3, 22]: 33%(2/6)
Preparations in absolute FPD category ≤ 450 ms [3, 22]: 0% (0/6)
Preparations with EAD/TA [3, 22]: 67%(4/6)
Preparations with EAD/TA ([3]; cisapride 300 nM, all 4 facilities, n=24): 100%(24/24)
Preparations with EAD/TA ([3]; cisapride 300 nM, facility D, n=6): 100%(6/6)
Effect on FPD [3]: prolonged FPD in a concentration-dependent manner
Use (rate) dependence of FPD prolongation [3]: induced FPD prolongation in a reverse use-dependent manner
